Data: US7888319B2, “Compositions and methods for promoting wound healing and tissue regeneration” (MUSC Foundation for Research Development, priority 2004, dated 2011)
Ends that are not written are not given here.

How the values were obtained:
[1] = system: 4 mm long incisional skin injury; test: Incisional skin injury in neonatal mouse; format: in vivo
Method: Neonatal mouse pups were desensitized using hypothermia. A 4 mm long incisional skin injury was made using a scalpel through the entire thickness of the skin (down to the level of the underlying muscle) in the dorsal mid line between the shoulder blades. 30 μl of a solution of 20% pluronic (F-127) gel containing either no (control) or dissolved ACT 1 peptide (SEQ ID NO: 2) at a concentration of 60 μM was then applied to the incisional injuries. Control or ACT peptide containing gel was applied subsequently 24 hours after the initial application. No further application of control and ACT peptide containing gel was made after the second application. […] These differences in inflammation, swelling and healing between the control and ACT peptide and control treated injury persisted at the 72 (c, d) and 96 (e, f) hour time points. […] Note that images of the same injury on the same animal are shown at the different time points during the healing time course. Neonatal mouse pups were desensitized using hypothermia. A 4 mm long incisional skin injury was made using a scalpel through the entire thickness of the skin (down to the level of the underlying muscle) in the dorsal mid line between the shoulder blades. 30 μl of a solution of 20% pluronic (F-127) gel containing either no (control) or dissolved ACT 1 peptide (SEQ ID NO:2) at a concentration of 60 μM was then applied to the incisional injuries. Pluronic gel has mild surfactant properties that may aid in the uniform dispersion of the ACT peptide in micelles. More importantly, 20% pluronic gel stays liquid at temperatures below 15° C., but polymerizes at body temperature (37° C.). This property of pluronic gel probably aided in the controlled release of peptide into the tissue at the site of incisional injury, protecting the peptide from break-down in the protease-rich environment of the wound and also enabling active concentrations of the peptide to maintained over prolonged periods. Control or ACT peptide containing gel was applied subsequently 24 hours after the initial application. […]

[2] = system: 8 mm wide circular excisional skin injuries; test: Large (8 mm) excisional skin injury in adult mice; format: in vivo, mouse
Method: Anesthetized adult mice had 8 mm wide circular excisional skin injuries made by fine surgical scissors down to the underlying muscle in the dorsal mid line between the shoulder blades (i.e., as shown in (a) an (b). The boundary of the injury was demarcated by an 8 mm wide circular template cut in a plastic sheet. 100 μl of a solution of 30% pluronic gel containing either no (control) or dissolved ACT 1 peptide (SEQ ID NO:2) at a concentration of 100 μM was then applied to the excisional injuries. Control or ACT peptide containing gel was applied subsequently 24 hours after the initial application. No further applications of control and ACT peptide containing gel were made after the second application. […] Note that images of the same injury on the same animal are shown at the different time points during the healing time course. […] Skin biopsies of the entire wound site were taken from some of the mice 24 hours following the excisional injury in the experiment described in FIG. 6. Figures (a) and (b) show low magnification survey views of cross-sections from near the center of the wound of control and ACT peptide treated injuries respectively. The wound edge (marked by the small arrows), bounded by skin of normal histological appearance, can be seen in both cases. A black rectangle is placed over the images in (a) and (b) at the left hand wound edge. The histological structures within these two rectangles are shown at higher magnification in (c) and (d) for control and ACT peptide treated tissues, respectively. Of most interest is a “collar-like” tissue of aligned fibrous material (arrowed) projecting from basal parts of the injury to or toward the wound edge and exterior surface of injury. The aligned fibrous substrate has the appearance of being much more organized in the control injury (d) than in the ACT peptide treated injury (c). […] This is confirmed in (e) and (f) where regions of histological section within the black rectangles shown in (c) and (d) are respectively shown at higher magnification. The inflammatory cells studding the aligned fibrous substrate include mast cells, neutrophils and macrophages. These inflammatory cells occur at much higher density in the control injury than in the ACT peptide treated injury. […] At the end of the 14 day period in the experiment described in FIG. 6, skin biopsies of the entire excisional injury were taken and histological sections from these skin samples were H&E histochemically stained. Figures (a) and (b) show low magnification survey views of cross-sections from near the center of the injury of ACT peptide and control respectively. The wound edge (marked by the small arrows), bounded by skin of normal histological appearance, can be seen in both cases. A black rectangle is placed over the images in (a) and (b) near the center of each injury. The histological structures within these two rectangles are shown at higher magnification in (c) and (d) for the ACT peptide and control tissues respectively. It is evident that tissue within the ACT peptide treated injury locus has considerably more complexity. […] By comparison, re-epithelization of the injury surface is incomplete and there is no sign of regenerating hair follicles in the epithelium of the control injury (d). […] As with, the hair follicles this tissue complexity was regenerated by differentiation of stem cells. […]

Sequence: RPRPDDLEI (not fully specified (N-terminus)) [ACT 1, carboxy-terminal 9 amino acids of human Cx43; amino terminus biotinylated in tests]
- appearance of injury (closure, inflammation, swelling, healing) ([1]; 60 μM in 20% pluronic (F-127) gel, 30 μl, applied at 0 and 24 hours, by 48 hours, vs gel without peptide): significantly more closed, less inflamed, less swollen
- differences in inflammation, swelling and healing versus control ([1]; 60 μM in 20% pluronic gel, 72 and 96 hour time points): persisted
- scar appearance of wound ([1]; 60 μM in 20% pluronic gel, at 7 days): smoother and less scarred appearance
- closure, inflammation, healing and scarring of injury ([2]; 100 μM in 30% pluronic gel, 100 μl, applied at 0 and 24 hours, 14 day time course, vs gel without peptide): closed faster, was less inflamed in appearance, healed faster and scarred less
- re-epithelization of the injured surface ([2]; 100 μM, 14 days, H&E histology): re-epithelization of the injured surface is complete
- regenerating hair follicles in the new epithelium ([2]; 100 μM, 14 days, H&E histology): regenerating hair follicles can already be seen
- restoration of tissue structural complexity beneath the reformed epithelium ([2]; 100 μM, 14 days, H&E histology): considerable restoration of normal structural complexity
- density of inflammatory cells studding the fibrous substrate at the wound edge ([2]; 100 μM, skin biopsy 24 hours after injury, H&E histology): considerably lower density of inflammatory cells
